Measured values published in patent US12616201B2, “Herbicidal compositions comprising isoxaflutole” (BASF SE, priority 2024, dated 2026).

Tests used:
Echinochloa crus-galli = assay: Post-emergence application in field trials, ECHCG; format: in vivo
Method: (§1) In the examples below, using the method of S. R. Colby (1967) “Calculating synergistic and antagonistic responses of herbicide combinations”, Weeds 15, p. 22ff., the value E, which is expected if the activity of the individual active compounds is only additive, was calculated:
(§2) [formula] • where • X=percent activity using active herbicide A at an application rate a; • Y=percent activity using active herbicide B (i.e. isoxaflutole) at an application rate b; • E=expected activity (in %) by A+B at application rates a+b.
(§3) If the value found experimentally is higher than the value E calculated according to Colby, a synergistic effect is present.
(§4) On field test sites, natural weed infestation or seeded weeds were treated post-emergence of the weeds.
(§5) In the field trials, the weeds were treated as indicated below.
(§6) In the following experiments, the herbicidal activity for the individual herbicidal compositions (solo and mixture applications) was assessed at the indicated days after treatment (DAT). The assessments for the damage on undesired weeds caused by the composition was carried out using a scale from 0 to 100%, compared to the untreated control plants. Here, 0 means no damage and 100 means complete destruction of the plants.
(§7) Herbicide A-1 and isoxaflutole (240 g/l SC) were, together with addition of 0.25 v/v % MSO (methylated sed oil) as adjuvant, formulated in water as distribution medium (water volume 200 l/ha) and sprayed with commercial flat fan nozzles.
(§8) Herbicide A-1 and isoxaflutole (240 g/l SC, Balance Flexx®) were, together with addition of 0.25 v/v % MSO (methylated sed oil) as adjuvant, formulated in water as distribution medium (water volume 200 l/ha) and sprayed with commercial flat fan nozzles.
(§9) Herbicide A-1, isoxaflutole (240 g/l SC) and saflufenacil (342 g/l) were, together with addition of 0.25 v/v % MSO (methylated sed oil) as adjuvant, formulated in water as distribution medium (water volume 200 l/ha) and sprayed with commercial flat fan nozzles.
(§10) Herbicide A-1, isoxaflutole (240 g/l SC), saflufenacil (342 g/l) and pyroxasulfone were, together with addition of 0.25 v/v % MSO (methylated sed oil) as adjuvant, formulated in water as distribution medium (water volume 200 l/ha) and sprayed with commercial flat fan nozzles.

Hordeum vulgare = assay: Post-emergence application in field trials, HORVX; format: in vivo; conditions: HORVX growth stage 23-29
Method: as §1, §2, §3, §4, §5, §6, §8

Amaranthus hybridus = assay: Post-emergence application in field trials, AMACH; format: in vivo; conditions: Table 1.1; AMACH growth stage 35; 21 DAT; 25 g ai/ha
Method: as §1, §2, §3, §4, §5
as §6, with “the plants. […]” for “the plants.”

Spermacoce latifolia = assay: Post-emergence application in field trials, BOILF; format: in vivo; conditions: Table 1.1, BOILF growth stage 40, 21 DAT
Method: as §1, §2, §3, §4, §5, §6
Herbicide A-1 and isoxaflutole (75% WG) were, together with addition of 0.5 v/v % MSO (methylated sed oil) as adjuvant, formulated in water as distribution medium (water volume 200 l/ha) and sprayed with commercial flat fan nozzles.

Glycine max = assay: Post-emergence application in field trials, GLXMA; format: in vivo; conditions: GLXMA growth stage 13
Method: as §1, §2, §3, §4, §5, §6, §7

Abuthilon theophrasti = assay: Post-emergence application in field trials, ABUTH; format: in vivo; conditions: ABUTH growth stage 14-16, 18 g ai/ha
Method: as §1, §2, §3, §4, §5, §6, §8

Zea mays = assay: Post-emergence application in field trials, ZEAMX; format: in vivo
Method: as §1, §2, §3, §4, §5, §6, §7, §8, §9, §10

Setaria verticillata = assay: Post-emergence application in field trials, SETVE; format: in vivo; conditions: SETVE growth stage 21-23, 12.5 g ai/ha
Method: as §1, §2, §3, §4, §5, §6, §7, §8

Datura stramonium = assay: Post-emergence application in field trials, DATST; format: in vivo
Method: as §1, §2, §3, §4, §5, §6, §7, §9

Euphorbia heterophylla = assay: Post-emergence application in field trials, EPHHL; format: in vivo; conditions: Table 1.1; EPHHL growth stage 35; 21 DAT; 50 g ai/ha
Method: as §1, §2, §3, §4, §5
as §6, with “the plants. […]” for “the plants.”

Ipomoea triloba = assay: Post-emergence application in field trials, IPOTR; format: in vivo; conditions: Table 1.1; IPOTR growth stage 35; 21 DAT; 25 g ai/ha
Method: as §1, §2, §3, §4, §5
as §6, with “the plants. […]” for “the plants.”

Amaranthus retroflexus = assay: Post-emergence application in field trials, AMARE; format: in vivo
Method: as §1, §2, §3, §4, §5, §6, §8, §10

Lolium multiflorum = assay: Post-emergence application in field trials, LOLMU; format: in vivo
Method: as §1, §2, §3, §4, §5, §6, §10

Chenopodium album = assay: Post-emergence application in field trials, CHEAL; format: in vivo; conditions: Table 5.22; 7 DAT; height 10-25 cm; C-19 70 g ai/ha
Method: as §1, §2, §3, §4, §5
as §6, with “the plants. […]” for “the plants.”

HORVW = assay: Post-emergence application in field trials, HORVW; format: in vivo, Hordeum vulgare
Method: as §1, §2, §3, §4, §5, §6, §10

[1] = Table 5.23, 21 DAT, height 20-25 cm, C-19 70 g ai/ha

SMILES: CCOC(=O)COc1ccccc1Oc1nc(-n2c(=O)cc(C(F)(F)F)n(C)c2=O)c(F)cc1Cl [A-1, ethyl 2-[2-[[3-chloro-5-fluoro-6-[3-methyl-2,6-dioxo-4-(trifluoromethyl)pyrimidin-1-yl]-2-pyridyl]oxy]phenoxy]acetate]
- % herbicidal activity (Echinochloa crus-galli; Table 2.1, ECHCG growth stage 23-30, 7 DAT, 12.5 g ai/ha): 30%
- % herbicidal activity (Echinochloa crus-galli; Table 2.1, ECHCG growth stage 23-30, 7 DAT, 18 g ai/ha): 30%
- % herbicidal activity (Echinochloa crus-galli; Table 3.1, ECHCG growth stage 23-30, 7 DAT, 18 g ai/ha): 30%
- % herbicidal activity (Echinochloa crus-galli; Table 3.2, ECHCG growth stage 23-30, 21 DAT, 12.5 g ai/ha): 20%
- % herbicidal activity (Echinochloa crus-galli; Table 4.1, ECHCG growth stage 23-30, height 15-20 cm, 7 DAT, 12.5 g ai/ha): 30%
- % herbicidal activity (Echinochloa crus-galli; Table 4.1, ECHCG growth stage 23-30, height 15-20 cm, 7 DAT, 18 g ai/ha): 30%
- % herbicidal activity (Echinochloa crus-galli; Table 5.11, 7 DAT, height 15-20 cm, A-1 12.5 g ai/ha): 30%
- % herbicidal activity (Echinochloa crus-galli; Table 5.11, 7 DAT, height 15-20 cm, A-1 18 g ai/ha): 30%
- % herbicidal activity (Hordeum vulgare; Table 3.1, 7 DAT, 12.5 g ai/ha): 70%
- % herbicidal activity (Hordeum vulgare; Table 3.1, 7 DAT, 18 g ai/ha): 80%
- % herbicidal activity (Hordeum vulgare; Table 3.2, 21 DAT, 12.5 g ai/ha): 90%
- % herbicidal activity (Amaranthus hybridus): 84%
- % herbicidal activity (Spermacoce latifolia; 25 g ai/ha): 81%
- % herbicidal activity (Spermacoce latifolia; 50 g ai/ha): 95%
- % herbicidal activity (Glycine max; Table 2.1, 7 DAT, 18 g ai/ha): 80%
- % herbicidal activity (Glycine max; Table 2.2, 21 DAT, 12.5 g ai/ha): 80%
- % herbicidal activity (Glycine max; Table 2.2, 21 DAT, 18 g ai/ha): 80%
- % herbicidal activity (Glycine max; Table 2.3, 21 DAT, 12.5 g ai/ha): 75%
- % herbicidal activity (Abuthilon theophrasti; Table 3.1, 7 DAT): 90%
- % herbicidal activity (Abuthilon theophrasti; Table 3.2, 21 DAT): 92%
- % herbicidal activity (Abuthilon theophrasti; Table 3.4, 42 DAT): 90%
- % herbicidal activity (Zea mays; Table 2.1, ZEAMX growth stage 15-16, 7 DAT, 18 g ai/ha): 85%
- % herbicidal activity (Zea mays; Table 3.2, ZEAMX growth stage 15-16, 21 DAT, 18 g ai/ha): 75%
- % herbicidal activity (Zea mays; Table 3.3, ZEAMX growth stage 15-16, 28 DAT, 18 g ai/ha): 60%
- % herbicidal activity (Zea mays; Table 4.1, ZEAMX growth stage 15-16, height 25-30 cm, 7 DAT, 12.5 g ai/ha): 40%
- % herbicidal activity (Zea mays; Table 4.1, ZEAMX growth stage 15-16, height 25-30 cm, 7 DAT, 18 g ai/ha): 50%
- % herbicidal activity (Zea mays; Table 5.10, 7 DAT, height 25-30 cm, A-1 12.5 g ai/ha): 85%
- % herbicidal activity (Zea mays; Table 5.10, 7 DAT, height 25-30 cm, A-1 18 g ai/ha): 85%
- % herbicidal activity (Zea mays; Table 5.11, 7 DAT, height 25-30 cm, A-1 12.5 g ai/ha): 85%
- % herbicidal activity (Zea mays; Table 5.11, 7 DAT, height 25-30 cm, A-1 18 g ai/ha): 85%
- % herbicidal activity (Zea mays; Table 5.12, 7 DAT, height 25-30 cm, A-1 12.5 g ai/ha): 85%
- % herbicidal activity (Zea mays; Table 5.12, 7 DAT, height 25-30 cm, A-1 18 g ai/ha): 85%
- % herbicidal activity (Setaria verticillata; Table 2.1, 7 DAT): 60%
- % herbicidal activity (Setaria verticillata; Table 3.4, 42 DAT): 30%
- % herbicidal activity (Datura stramonium; Table 2.1, DATST growth stage 14-16, 7 DAT, 18 g ai/ha): 75%
- % herbicidal activity (Datura stramonium; Table 2.3, DATST growth stage 14-16, 21 DAT, 18 g ai/ha): 70%
- % herbicidal activity (Datura stramonium; Table 4.2, DATST growth stage 14-16, height 5-10 cm, 42 DAT, 12.5 g ai/ha): 55%
- % herbicidal activity (Datura stramonium; Table 4.2, DATST growth stage 14-16, height 5-10 cm, 42 DAT, 18 g ai/ha): 70%
- % herbicidal activity (Euphorbia heterophylla): 86%
- % herbicidal activity (Ipomoea triloba): 61%
- % herbicidal activity (Amaranthus retroflexus; Table 3.4, AMARE growth stage 31-49, 42 DAT, 18 g ai/ha): 70%

SMILES: Cn1nc(C(F)(F)F)c(CS(=O)(=O)C2=NOC(C)(C)C2)c1OC(F)F [C-19, pyroxasulfone]
- % herbicidal activity (Echinochloa crus-galli; Table 5.23, 21 DAT, height 15-20 cm, C-19 70 g ai/ha): 40%
- % herbicidal activity (Echinochloa crus-galli; Table 5.24, 28 DAT, height 15-20 cm, C-19 70 g ai/ha): 30%
- % herbicidal activity (Echinochloa crus-galli; Table 5.4, ECHCG height 15-20 cm, 7 DAT, 70 g ai/ha): 20%
- % herbicidal activity (Lolium multiflorum; Table 5.1, LOLMU height 20-25 cm, 7 DAT, 70 g ai/ha): 20%
- % herbicidal activity (Lolium multiflorum; Table 5.22, 7 DAT, height 20-25 cm, C-19 70 g ai/ha): 20%
- % herbicidal activity (Lolium multiflorum; [1]): 40%
- % herbicidal activity (Lolium multiflorum; Table 5.4, LOLMU height 20-25 cm, 7 DAT, 70 g ai/ha): 20%
- % herbicidal activity (Zea mays; Table 5.10, 7 DAT, height 25-30 cm, C-19 70 g ai/ha): 5%
- % herbicidal activity (Zea mays; Table 5.22, 7 DAT, height 25-30 cm, C-19 70 g ai/ha): 5%
- % herbicidal activity (Zea mays; Table 5.23, 21 DAT, height 25-30 cm, C-19 70 g ai/ha): 4%
- % herbicidal activity (Zea mays; Table 5.24, 28 DAT, height 25-30 cm, C-19 70 g ai/ha): 0%
- % herbicidal activity (Zea mays; Table 5.4, ZEAMX height 25-30 cm, 7 DAT, 70 g ai/ha): 5%
- % herbicidal activity (Zea mays; Table 5.5, ZEAMX height 25-30 cm, 21 DAT, 70 g ai/ha): 4%
- % herbicidal activity (Zea mays; Table 5.6, ZEAMX height 25-30 cm, 28 DAT, 70 g ai/ha): 0%
- % herbicidal activity (Chenopodium album): 10%
- % herbicidal activity (HORVW; Table 5.2, HORVW height 20-25 cm, 21 DAT, 70 g ai/ha): 0%
- % herbicidal activity (HORVW; [1]): 0%
- % herbicidal activity (HORVW; Table 5.24, 28 DAT, height 20-25 cm, C-19 70 g ai/ha): 0%
- % herbicidal activity (HORVW; Table 5.3, HORVW height 20-25 cm, 28 DAT, 70 g ai/ha): 0%
- % herbicidal activity (HORVW; Table 5.5, HORVW height 20-25 cm, 21 DAT, 70 g ai/ha): 0%
- % herbicidal activity (HORVW; Table 5.6, HORVW height 20-25 cm, 28 DAT, 70 g ai/ha): 0%
- % herbicidal activity (Amaranthus retroflexus; Table 5.22, 7 DAT, height 8-20 cm, C-19 70 g ai/ha): 10%
- % herbicidal activity (Amaranthus retroflexus; Table 5.4, AMARE height 8-20 cm, 7 DAT, 70 g ai/ha): 10%
